Key:
human Gal-3 (hGal-3) = human Gal-3 (hGal-3) (Homo sapiens (Human), UniProt P17931); assay: Competitive binding assay: biotinylated hGal-3 to microplate-adsorbed asialofetuin (ASF); settings: Activity on hGal-3; binding to ASF-coated plates, 3 hours at 4° C.; mean values
Protocol: Evaluation of Compound Inhibitory Activity (IC50)
The inhibitory activity of compounds is determined in competitive binding assays. This spectrophotometric assay measures the binding of biotinylated human Gal-3 (hGal-3) or human Gal-1 (hGal-1), respectively, to a microplate-adsorbed glycoprotein, asialofetuin (ASF) (Proc Natl Acad Sci USA. 2013 Mar. 26; 110(13):5052-7.). Alternatively, and preferably, a human Gal-1 version in which all six cysteines are substituted by serines may be used.
Briefly, compounds are serially diluted in DMSO (working dilutions). ASF-coated 384 well plates are supplemented with 22.8 μL/well of biotinylated hGal-3 or hGal-1 in assay buffer (i.e. 300-1000 ng/mL biotinylated hGal-3 or hGal-1) to which 1.2 µL of compound working dilutions are added and mixed.
Plates are incubated for 3 hours at 4° C., then washed with cold assay buffer (3×50 uL), incubated for 1 hour with 25 μL/well of a streptavidin-peroxidase solution (diluted in assay buffer to 80 ng/mL) at 4° C., followed by further washing steps with assay buffer (3×50 uL). Finally, 25 µL/well of ABTS substrate is added.
The calculated IC50 values may fluctuate depending on the daily assay performance. Fluctuations of this kind are known to those skilled in the art. IC50 values from several measurements are given as mean values.

human Gal-1 (hGal-1) = human Gal-1 (hGal-1) (Homo sapiens, UniProt P09382); assay: Competitive binding assay: biotinylated hGal-1 to microplate-adsorbed asialofetuin (ASF); settings: Activities on hGal-1; binding to ASF-coated plates, 3 hours at 4° C.; mean values; read-out: Gal-1 IC50
Protocol: Evaluation of Compound Inhibitory Activity (IC50) The inhibitory activity of compounds is determined in competitive binding assays. […] Alternatively, and preferably, a human Gal-1 version in which all six cysteines are substituted by serines may be used. Briefly, compounds are serially diluted in DMSO (working dilutions). […] Plates are incubated for 3 hours at 4° C., then washed with cold assay buffer (3×50 uL), incubated for 1 hour with 25 μL/well of a streptavidin-peroxidase solution (diluted in assay buffer to 80 ng/mL) at 4° C., followed by further washing steps with assay buffer (3×50 uL). Finally, 25 µL/well of ABTS substrate is added. […] The calculated IC50 values may fluctuate depending on the daily assay performance. Fluctuations of this kind are known to those skilled in the art. IC50 values from several measurements are given as mean values.

Chain of human Gal-3 (hGal-3) (P17931 whole entry): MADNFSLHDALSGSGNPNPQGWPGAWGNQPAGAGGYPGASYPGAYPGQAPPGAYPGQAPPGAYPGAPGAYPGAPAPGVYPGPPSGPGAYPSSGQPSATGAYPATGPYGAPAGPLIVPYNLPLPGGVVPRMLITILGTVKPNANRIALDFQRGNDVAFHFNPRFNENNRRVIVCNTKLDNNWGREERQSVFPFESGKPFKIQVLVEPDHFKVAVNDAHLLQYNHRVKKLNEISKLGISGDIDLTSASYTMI
Chain of human Gal-1 (hGal-1) (P09382 2-135 limits assumed): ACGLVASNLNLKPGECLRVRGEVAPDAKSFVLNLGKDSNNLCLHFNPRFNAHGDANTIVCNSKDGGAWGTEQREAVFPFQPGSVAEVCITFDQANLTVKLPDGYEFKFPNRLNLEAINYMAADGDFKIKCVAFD

Compound | IC50 (human Gal-3 (hGal-3)) [nM] | IC50 (human Gal-1 (hGal-1)) [nM]
CO[C@@H]1[C@@H](n2cc(-c3cc(F)c(F)c(Cl)c3)nn2)[C@@H](O)[C@@H](CO)O[C@@H]1CC1=NOC2(CCCCC2)C1 [Example 1.31, (2R,3R,4S,5R,6R)-6-((1-oxa-2-azaspiro[4.5]dec-2-en-3-yl)methyl)-4-(4-(3-chloro-4,5-difluorophenyl)-1H-1,2,3-triazol-1-yl)-2-(hydroxymethyl)-5-methoxytetrahydro-2H-pyran-3-ol] | 260 | 970
CO[C@@H]1[C@@H](n2cc(-c3ccc(F)c(F)c3F)nn2)[C@@H](O)[C@@H](CO)O[C@@H]1CC1=NOC2(CCOCC2)C1 [Example 1.35, (2R,3R,4S,5R,6R)-6-((1,8-dioxa-2-azaspiro[4.5]dec-2-en-3-yl)methyl)-2-(hydroxymethyl)-5-methoxy-4-(4-(2,3,4-trifluorophenyl)-1H-1,2,3-triazol-1-yl)tetrahydro-2H-pyran-3-ol] | 110 | 1400
CO[C@@H]1[C@@H](n2cc(-c3ccc(C)c(F)c3F)nn2)[C@@H](O)[C@@H](CO)O[C@@H]1CC1=NOC2(CCOCC2)C1 [Example 1.36, (2R,3R,4S,5R,6R)-6-((1,8-dioxa-2-azaspiro[4.5]dec-2-en-3-yl)methyl)-4-(4-(2,3-difluoro-4-methylphenyl)-1H-1,2,3-triazol-1-yl)-2-(hydroxymethyl)-5-methoxytetrahydro-2H-pyran-3-ol] | 64 | 3800
CO[C@@H]1[C@@H](n2cc(-c3ccc(Cl)c(F)c3F)nn2)[C@@H](O)[C@@H](CO)O[C@@H]1CC1=NOC2(CCOCC2)C1 [Example 1.37, (2R,3R,4S,5R,6R)-6-((1,8-dioxa-2-azaspiro[4.5]dec-2-en-3-yl)methyl)-4-(4-(4-chloro-2,3-difluorophenyl)-1H-1,2,3-triazol-1-yl)-2-(hydroxymethyl)-5-methoxytetrahydro-2H-pyran-3-ol] | 120 | 4600
CO[C@@H]1[C@@H](n2cc(-c3cc(F)c(F)c(F)c3)nn2)[C@@H](O)[C@@H](CO)O[C@@H]1CC1=NOC2(CCCCCC2)C1 [Example 1.38, (2R,3R,4S,5R,6R)-6-((1-oxa-2-azaspiro[4.6]undec-2-en-3-yl)methyl)-2-(hydroxymethyl)-5-methoxy-4-(4-(3,4,5-trifluorophenyl)-1H-1,2,3-triazol-1-yl)tetrahydro-2H-pyran-3-ol] | 160 | 6400
CO[C@@H]1[C@@H](n2cc(-c3ccc(F)c(F)c3F)nn2)[C@@H](O)[C@@H](CO)O[C@@H]1CC1=NO[C@]2(CC[C@H](NC(=O)OC(C)(C)C)CC2)C1 [Example 1.41, tert-butyl ((5r,8R)-3-(((2R,3R,4S,5R,6R)-5-hydroxy-6-(hydroxymethyl)-3-methoxy-4-(4-(2,3,4-trifluorophenyl)-1H-1,2,3-triazol-1-yl)tetrahydro-2H-pyran-2-yl)methyl)-1-oxa-2-azaspiro[4.5]dec-2-en-8-yl)carbamate] | 12 | 300
CO[C@@H]1[C@@H](n2cc(-c3ccc(F)c(F)c3F)nn2)[C@@H](O)[C@@H](CO)O[C@@H]1CC1=NO[C@]2(CC[C@@H](NC(=O)OC(C)(C)C)CC2)C1 [Example 1.42, tert-butyl ((5s,8S)-3-(((2R,3R,4S,5R,6R)-5-hydroxy-6-(hydroxymethyl)-3-methoxy-4-(4-(2,3,4-trifluorophenyl)-1H-1,2,3-triazol-1-yl)tetrahydro-2H-pyran-2-yl)methyl)-1-oxa-2-azaspiro[4.5]dec-2-en-8-yl)carbamate] | 132 | 850
CO[C@@H]1[C@@H](n2cc(-c3ccc(C)c(F)c3F)nn2)[C@@H](O)[C@@H](CO)O[C@@H]1CC1=NO[C@]2(CC[C@H](NC(=O)OC(C)(C)C)CC2)C1 [Example 1.43, tert-butyl ((5r,8R)-3-(((2R,3R,4S,5R,6R)-4-(4-(2,3-difluoro-4-methylphenyl)-1H-1,2,3-triazol-1-yl)-5-hydroxy-6-(hydroxymethyl)-3-methoxytetrahydro-2H-pyran-2-yl)methyl)-1-oxa-2-azaspiro[4.5]dec-2-en-8-yl)carbamate] | 15 | 1240

Results, then the compound that gave them:

IC50 (human Gal-3 (hGal-3)) [nM] | IC50 (human Gal-1 (hGal-1)) [nM] | Compound
1100 | 18800 | CO[C@@H]1[C@@H](n2cc(-c3cc(F)c(F)c(F)c3)nn2)[C@@H](O)[C@@H](CO)O[C@@H]1CC1=NO[C@]2(CC[C@H](C(C)C)CC2)C1 [Example 1.27, (2R,3R,4S,5R,6R)-2-(hydroxymethyl)-6-(((5r,8R)-8-isopropyl-1-oxa-2-azaspiro[4.5]dec-2-en-3-yl)methyl)-5-methoxy-4-(4-(3,4,5-trifluorophenyl)-1H-1,2,3-triazol-1-yl)tetrahydro-2H-pyran-3-ol]
2000 | 6900 | CO[C@@H]1[C@@H](n2cc(-c3cc(F)c(F)c(F)c3)nn2)[C@@H](O)[C@@H](CO)O[C@@H]1CC1=NO[C@]2(CC[C@@H](C(C)C)CC2)C1 [Example 1.28, (2R,3R,4S,5R,6R)-2-(hydroxymethyl)-6-(((5s,8S)-8-isopropyl-1-oxa-2-azaspiro[4.5]dec-2-en-3-yl)methyl)-5-methoxy-4-(4-(3,4,5-trifluorophenyl)-1H-1,2,3-triazol-1-yl)tetrahydro-2H-pyran-3-ol]
440 | 2200 | CO[C@@H]1[C@@H](n2cc(-c3cc(F)c(F)c(F)c3)nn2)[C@@H](O)[C@@H](CO)O[C@@H]1CC1=NOC2(CCC(C)(C)CC2)C1 [Example 1.29, (2R,3R,4S,5R,6R)-6-((8,8-dimethyl-1-oxa-2-azaspiro[4.5]dec-2-en-3-yl)methyl)-2-(hydroxymethyl)-5-methoxy-4-(4-(3,4,5-trifluorophenyl)-1H-1,2,3-triazol-1-yl)tetrahydro-2H-pyran-3-ol]
340 | 3400 | CO[C@@H]1[C@@H](n2cc(-c3cc(F)c(F)c(F)c3)nn2)[C@@H](O)[C@@H](CO)O[C@@H]1CC1=NOC2(CCC(C)(C)C2)C1 (stereo partly drawn) [Example 1.32, (2R,3R,4S,5R,6R)-6-((7,7-dimethyl-1-oxa-2-azaspiro[4.4]non-2-en-3yl)methyl)-2-(hydroxymethyl)-5-methoxy-4-(4-(3,4,5-trifluorophenyl)-1H-1,2,3-triazol-1-yl)tetrahydro-2H-pyran-3-ol]
330 | 3700 | CO[C@@H]1[C@@H](n2cc(-c3cc(F)c(F)c(F)c3)nn2)[C@@H](O)[C@@H](CO)O[C@@H]1CC1=NO[C@]2(CC[C@H](C)CC2)C1 [Example 1.33, (2R,3R,4S,5R,6R)-2-(hydroxymethyl)-5-methoxy-6-(((5r,8R)-8-methyl-1-oxa-2-azaspiro[4.5]dec-2-en-3-yl)methyl)-4-(4-(3,4,5-trifluorophenyl)-1H-1,2,3-triazol-1-yl)tetrahydro-2H-pyran-3-ol]
520 | 2500 | CO[C@@H]1[C@@H](n2cc(-c3cc(F)c(F)c(F)c3)nn2)[C@@H](O)[C@@H](CO)O[C@@H]1CC1=NO[C@]2(CC[C@@H](C)CC2)C1 [Example 1.34, (2R,3R,4S,5R,6R)-2-(hydroxymethyl)-5-methoxy-6-(((5s,8S)-8-methyl-1-oxa-2-azaspiro[4.5]dec-2-en-3-yl)methyl)-4-(4-(3,4,5-trifluorophenyl)-1H-1,2,3-triazol-1-yl)tetrahydro-2H-pyran-3-ol]
260 | 7100 | CO[C@@H]1[C@@H](n2cc(-c3cc(F)c(F)c(F)c3)nn2)[C@@H](O)[C@@H](CO)O[C@@H]1CC1=NO[C@]2(CC[C@@H](C#N)CC2)C1 [Example 1.39, (5s,8S)-3-(((2R,3R,4S,5R,6R)-5-hydroxy-6-(hydroxymethyl)-3-methoxy-4-(4-(3,4,5-trifluorophenyl)-1H-1,2,3-triazol-1-yl)tetrahydro-2H-pyran-2-yl)methyl)-1-oxa-2-azaspiro[4.5]dec-2-ene-8-carbonitrile]
89 | 2000 | CO[C@@H]1[C@@H](n2cc(-c3cc(F)c(F)c(F)c3)nn2)[C@@H](O)[C@@H](CO)O[C@@H]1CC1=NO[C@]2(CC[C@H](C#N)CC2)C1 [Example 1.40, (5r,8R)-3-(((2R,3R,4S,5R,6R)-5-hydroxy-6-(hydroxymethyl)-3-methoxy-4-(4-(3,4,5-trifluorophenyl)-1H-1,2,3-triazol-1-yl)tetrahydro-2H-pyran-2-yl)methyl)-1-oxa-2-azaspiro[4.5]dec-2-ene-8-carbonitrile]
